Columns and labels:
[1] = biological target: T1, Alpha-1B adrenergic receptor (Homo sapiens, UniProt P35368); test: GPCRScan assay: inhibition of Alpha1B; parameters: radioligand conc. used [nm] 0.3 – 1.0, parental cells stable HEK
T1 sequence (P35368 whole entry): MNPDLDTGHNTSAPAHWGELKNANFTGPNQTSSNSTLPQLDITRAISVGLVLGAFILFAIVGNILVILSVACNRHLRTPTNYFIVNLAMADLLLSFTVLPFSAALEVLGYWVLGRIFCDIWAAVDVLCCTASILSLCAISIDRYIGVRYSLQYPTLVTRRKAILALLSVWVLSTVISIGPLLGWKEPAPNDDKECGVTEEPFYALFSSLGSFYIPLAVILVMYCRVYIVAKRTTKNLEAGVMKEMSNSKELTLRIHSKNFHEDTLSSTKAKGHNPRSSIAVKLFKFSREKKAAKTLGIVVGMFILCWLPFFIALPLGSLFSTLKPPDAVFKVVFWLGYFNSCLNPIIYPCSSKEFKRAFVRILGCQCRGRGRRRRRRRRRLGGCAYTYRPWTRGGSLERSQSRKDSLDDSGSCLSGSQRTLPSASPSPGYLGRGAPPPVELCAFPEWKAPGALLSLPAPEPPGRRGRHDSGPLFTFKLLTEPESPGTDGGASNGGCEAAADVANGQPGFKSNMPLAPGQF

[2] = biological target: Receptor tyrosine-protein kinase erbB-4 (Homo sapiens) (UniProt Q15303); details: Compound concentration 1000.0 nM
[3] = biological target: Ephrin type-A receptor 2 (Homo sapiens) (UniProt P29317); details: Compound concentration 1000.0 nM
[4] = biological target: Insulin-like growth factor 1 receptor (Homo sapiens) (UniProt P08069); details: Compound concentration 1000.0 nM
[5] = biological target: TGF-beta receptor type-1 (Homo sapiens) (UniProt P36897); details: Compound concentration 1000.0 nM
Chain of TGF-beta receptor type-1 (Homo sapiens) (P36897 whole entry): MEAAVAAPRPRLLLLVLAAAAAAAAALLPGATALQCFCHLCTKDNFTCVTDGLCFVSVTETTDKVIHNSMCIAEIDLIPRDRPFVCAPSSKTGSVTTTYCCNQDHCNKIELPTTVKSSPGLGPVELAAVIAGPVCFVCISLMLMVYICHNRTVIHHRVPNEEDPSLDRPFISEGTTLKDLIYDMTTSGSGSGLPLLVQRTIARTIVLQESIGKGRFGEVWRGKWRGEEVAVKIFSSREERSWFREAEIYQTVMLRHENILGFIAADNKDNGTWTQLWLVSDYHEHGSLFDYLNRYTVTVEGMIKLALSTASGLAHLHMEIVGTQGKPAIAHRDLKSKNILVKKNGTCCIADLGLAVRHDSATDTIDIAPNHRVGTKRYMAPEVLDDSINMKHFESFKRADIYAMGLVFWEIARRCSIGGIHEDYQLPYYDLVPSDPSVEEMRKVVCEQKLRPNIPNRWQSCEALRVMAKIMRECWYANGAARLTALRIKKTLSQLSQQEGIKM

Histamine H2 receptor = Histamine H2 receptor (Homo sapiens, UniProt P25021); test: GPCRScan assay: inhibition of H2; parameters: radioligand conc. used [nm] 0.02 – 0.05, parental cells Stable HEK
Chain of Histamine H2 receptor (P25021 whole entry): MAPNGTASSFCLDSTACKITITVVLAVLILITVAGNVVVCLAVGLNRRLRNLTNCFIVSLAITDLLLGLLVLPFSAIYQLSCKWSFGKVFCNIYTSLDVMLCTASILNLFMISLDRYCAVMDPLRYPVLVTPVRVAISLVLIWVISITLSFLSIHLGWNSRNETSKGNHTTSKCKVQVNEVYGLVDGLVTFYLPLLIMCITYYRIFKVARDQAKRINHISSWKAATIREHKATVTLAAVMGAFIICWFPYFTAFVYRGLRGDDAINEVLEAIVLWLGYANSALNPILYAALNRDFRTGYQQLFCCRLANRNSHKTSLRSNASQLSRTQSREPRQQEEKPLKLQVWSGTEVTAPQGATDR

[6] = biological target: 5-hydroxytryptamine receptor 2B (Homo sapiens, UniProt P41595); test: GPCRScan assay: inhibition of 5-HT2B; parameters: radioligand conc. used [nm] 1.0 – 2.0, parental cells stable HEK
[7] = biological target: Mitogen-activated protein kinase kinase kinase kinase 3 (Homo sapiens) (UniProt Q8IVH8); details: Compound concentration 1000.0 nM
Chain of Mitogen-activated protein kinase kinase kinase kinase 3 (Homo sapiens) (Q8IVH8 whole entry): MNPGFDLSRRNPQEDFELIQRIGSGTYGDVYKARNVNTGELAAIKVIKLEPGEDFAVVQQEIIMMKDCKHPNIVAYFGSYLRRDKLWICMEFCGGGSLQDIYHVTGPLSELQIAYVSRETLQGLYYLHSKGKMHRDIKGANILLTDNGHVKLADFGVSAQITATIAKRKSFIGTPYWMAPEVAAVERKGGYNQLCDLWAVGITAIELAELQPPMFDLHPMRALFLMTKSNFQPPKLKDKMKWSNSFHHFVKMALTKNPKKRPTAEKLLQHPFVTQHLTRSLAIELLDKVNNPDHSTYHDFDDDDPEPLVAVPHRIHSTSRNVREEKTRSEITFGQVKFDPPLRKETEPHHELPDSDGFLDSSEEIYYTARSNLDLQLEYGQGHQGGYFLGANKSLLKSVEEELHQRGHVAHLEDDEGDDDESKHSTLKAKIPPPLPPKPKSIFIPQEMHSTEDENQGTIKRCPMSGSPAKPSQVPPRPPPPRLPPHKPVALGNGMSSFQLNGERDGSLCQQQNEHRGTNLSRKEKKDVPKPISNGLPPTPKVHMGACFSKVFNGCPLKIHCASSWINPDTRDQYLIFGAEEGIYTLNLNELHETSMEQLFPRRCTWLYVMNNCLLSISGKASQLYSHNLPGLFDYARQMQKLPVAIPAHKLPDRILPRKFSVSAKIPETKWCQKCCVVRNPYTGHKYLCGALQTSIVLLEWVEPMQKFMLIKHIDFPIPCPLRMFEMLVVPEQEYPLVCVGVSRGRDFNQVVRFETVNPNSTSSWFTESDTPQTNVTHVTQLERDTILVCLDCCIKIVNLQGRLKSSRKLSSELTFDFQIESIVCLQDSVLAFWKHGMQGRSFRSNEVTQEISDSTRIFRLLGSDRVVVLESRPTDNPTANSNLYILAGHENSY

[8] = tested on: Epidermal growth factor receptor (Homo sapiens), P00533 [UNDEFINED MUTATION]; details: Compound concentration 1000.0 nM
[9] = biological target: Interleukin-1 receptor-associated kinase 4 (Homo sapiens) (UniProt Q9NWZ3); details: Compound concentration 1000.0 nM
[10] = tested on: Serine/threonine-protein kinase B-raf (Homo sapiens), P15056 [V600E]; details: Compound concentration 1000.0 nM
Chain of Serine/threonine-protein kinase B-raf (Homo sapiens), P15056 [V600E] (P15056 whole entry V600E): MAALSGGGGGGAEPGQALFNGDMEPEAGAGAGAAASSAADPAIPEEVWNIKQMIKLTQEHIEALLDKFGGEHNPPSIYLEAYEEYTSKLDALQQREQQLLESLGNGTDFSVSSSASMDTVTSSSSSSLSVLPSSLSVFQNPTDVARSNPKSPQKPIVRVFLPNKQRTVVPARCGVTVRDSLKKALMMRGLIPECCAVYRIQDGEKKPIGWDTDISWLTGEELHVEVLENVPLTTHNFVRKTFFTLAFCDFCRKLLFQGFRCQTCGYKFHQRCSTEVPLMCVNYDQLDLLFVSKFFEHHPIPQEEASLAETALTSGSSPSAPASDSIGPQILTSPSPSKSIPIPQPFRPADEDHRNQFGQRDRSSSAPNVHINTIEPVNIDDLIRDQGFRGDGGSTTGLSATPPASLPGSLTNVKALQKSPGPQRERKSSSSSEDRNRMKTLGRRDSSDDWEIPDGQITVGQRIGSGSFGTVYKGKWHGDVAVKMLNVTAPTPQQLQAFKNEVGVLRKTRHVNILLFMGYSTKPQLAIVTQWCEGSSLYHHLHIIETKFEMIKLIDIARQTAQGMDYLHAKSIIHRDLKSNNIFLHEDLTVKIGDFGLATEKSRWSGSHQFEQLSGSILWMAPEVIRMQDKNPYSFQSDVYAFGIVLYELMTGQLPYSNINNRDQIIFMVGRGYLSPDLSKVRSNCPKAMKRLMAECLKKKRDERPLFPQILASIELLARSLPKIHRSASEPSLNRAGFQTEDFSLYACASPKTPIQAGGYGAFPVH

[11] = biological target: Muscarinic acetylcholine receptor M4 (Homo sapiens) (UniProt P08173); details: Compound concentration 10.0 uM
Chain of Muscarinic acetylcholine receptor M4 (Homo sapiens) (P08173 whole entry): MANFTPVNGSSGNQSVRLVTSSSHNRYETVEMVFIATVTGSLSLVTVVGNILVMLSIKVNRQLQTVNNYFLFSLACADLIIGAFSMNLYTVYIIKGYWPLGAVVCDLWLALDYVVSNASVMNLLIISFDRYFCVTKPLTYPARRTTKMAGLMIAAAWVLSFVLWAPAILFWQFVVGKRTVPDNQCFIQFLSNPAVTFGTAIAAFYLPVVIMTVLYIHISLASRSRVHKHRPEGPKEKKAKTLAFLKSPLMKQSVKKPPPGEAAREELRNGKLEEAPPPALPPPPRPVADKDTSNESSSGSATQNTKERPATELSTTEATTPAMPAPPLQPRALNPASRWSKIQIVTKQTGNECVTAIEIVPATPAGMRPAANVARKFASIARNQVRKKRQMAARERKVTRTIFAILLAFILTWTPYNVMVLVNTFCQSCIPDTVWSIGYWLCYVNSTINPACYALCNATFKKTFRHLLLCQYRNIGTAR

D(2) dopamine receptor = D(2) dopamine receptor (Homo sapiens, UniProt P14416); details: Compound concentration 10.0 uM
Chain of D(2) dopamine receptor (P14416 whole entry): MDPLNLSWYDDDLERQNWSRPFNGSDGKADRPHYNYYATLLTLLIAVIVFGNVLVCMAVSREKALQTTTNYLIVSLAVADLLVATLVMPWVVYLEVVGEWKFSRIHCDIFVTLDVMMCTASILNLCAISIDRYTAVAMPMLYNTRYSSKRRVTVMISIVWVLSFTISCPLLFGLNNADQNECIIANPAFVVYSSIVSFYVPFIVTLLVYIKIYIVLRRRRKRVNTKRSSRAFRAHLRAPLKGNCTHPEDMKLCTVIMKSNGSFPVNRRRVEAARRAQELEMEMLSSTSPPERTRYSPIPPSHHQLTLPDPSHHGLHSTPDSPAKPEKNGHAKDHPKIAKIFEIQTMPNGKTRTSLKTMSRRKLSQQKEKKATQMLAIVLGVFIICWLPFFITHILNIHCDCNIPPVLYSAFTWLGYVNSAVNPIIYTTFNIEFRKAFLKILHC

[12] = biological target: Mitogen-activated protein kinase 9 (Homo sapiens) (UniProt P45984); details: Compound concentration 1000.0 nM
Chain of Mitogen-activated protein kinase 9 (Homo sapiens) (P45984 whole entry, looked up): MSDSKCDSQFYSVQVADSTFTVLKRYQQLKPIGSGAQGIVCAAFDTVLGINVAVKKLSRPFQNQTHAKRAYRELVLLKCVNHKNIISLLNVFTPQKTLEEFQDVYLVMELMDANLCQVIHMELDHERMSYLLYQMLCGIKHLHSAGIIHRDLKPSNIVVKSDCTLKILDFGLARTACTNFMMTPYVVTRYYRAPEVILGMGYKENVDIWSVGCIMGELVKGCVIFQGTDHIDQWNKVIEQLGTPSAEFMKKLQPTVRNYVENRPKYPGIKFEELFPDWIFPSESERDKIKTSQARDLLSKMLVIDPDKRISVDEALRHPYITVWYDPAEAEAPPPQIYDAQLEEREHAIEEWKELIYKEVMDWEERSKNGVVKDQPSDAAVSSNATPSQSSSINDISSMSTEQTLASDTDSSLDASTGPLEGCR

[13] = biological target: Serine/threonine-protein kinase Nek1 (Homo sapiens) (UniProt Q96PY6); details: Compound concentration 1000.0 nM
[14] = biological target: Alpha-1B adrenergic receptor (Homo sapiens) (UniProt P35368); details: Compound concentration 10.0 uM
[15] = biological target: Serine/threonine-protein kinase PAK 5 (Homo sapiens) (UniProt Q9P286); details: Compound concentration 1000.0 nM
[16] = biological target: T2, Alpha-2A adrenergic receptor (Homo sapiens) (UniProt P08913); details: Compound concentration 10.0 uM
T2 sequence (whole entry): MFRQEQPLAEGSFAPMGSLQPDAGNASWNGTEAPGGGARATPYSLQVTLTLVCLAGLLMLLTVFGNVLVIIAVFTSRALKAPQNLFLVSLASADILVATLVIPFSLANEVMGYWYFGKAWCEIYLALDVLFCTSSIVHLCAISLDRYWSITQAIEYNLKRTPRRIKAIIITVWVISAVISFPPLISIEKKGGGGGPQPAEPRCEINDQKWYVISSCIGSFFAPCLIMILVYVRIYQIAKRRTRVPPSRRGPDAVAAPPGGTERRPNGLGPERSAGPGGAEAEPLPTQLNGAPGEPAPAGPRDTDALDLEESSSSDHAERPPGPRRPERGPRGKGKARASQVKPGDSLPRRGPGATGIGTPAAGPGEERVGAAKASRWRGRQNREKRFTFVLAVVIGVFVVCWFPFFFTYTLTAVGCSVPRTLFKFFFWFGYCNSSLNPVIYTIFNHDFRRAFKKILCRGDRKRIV

[17] = biological target: Cytoplasmic tyrosine-protein kinase BMX (Homo sapiens) (UniProt P51813); details: Compound concentration 1000.0 nM
[18] = biological target: Aurora kinase C (Homo sapiens) (UniProt Q9UQB9); details: Compound concentration 1000.0 nM
[19] = biological target: Serine/threonine-protein kinase RIO3 (Homo sapiens) (UniProt O14730); details: Compound concentration 1000.0 nM
[20] = tested on: Hepatocyte growth factor receptor (Homo sapiens), P08581 [Y1235D]; details: Compound concentration 1000.0 nM
[21] = biological target: Cyclin-dependent kinase 16 (Homo sapiens) (UniProt Q00536); details: Compound concentration 1000.0 nM
[22] = biological target: Tyrosine-protein kinase BTK (Homo sapiens) (UniProt Q06187); details: Compound concentration 1000.0 nM
[23] = biological target: Angiopoietin-1 receptor (Homo sapiens) (UniProt Q02763); details: Compound concentration 1000.0 nM
[24] = biological target: Phosphatidylinositol 4,5-bisphosphate 3-kinase catalytic subunit delta isoform (Homo sapiens) (UniProt O00329); details: Compound concentration 1000.0 nM
[25] = biological target: Glycogen synthase kinase-3 alpha (Homo sapiens) (UniProt P49840); details: Compound concentration 1000.0 nM
Chain of Glycogen synthase kinase-3 alpha (Homo sapiens) (P49840 2-483 limits assumed): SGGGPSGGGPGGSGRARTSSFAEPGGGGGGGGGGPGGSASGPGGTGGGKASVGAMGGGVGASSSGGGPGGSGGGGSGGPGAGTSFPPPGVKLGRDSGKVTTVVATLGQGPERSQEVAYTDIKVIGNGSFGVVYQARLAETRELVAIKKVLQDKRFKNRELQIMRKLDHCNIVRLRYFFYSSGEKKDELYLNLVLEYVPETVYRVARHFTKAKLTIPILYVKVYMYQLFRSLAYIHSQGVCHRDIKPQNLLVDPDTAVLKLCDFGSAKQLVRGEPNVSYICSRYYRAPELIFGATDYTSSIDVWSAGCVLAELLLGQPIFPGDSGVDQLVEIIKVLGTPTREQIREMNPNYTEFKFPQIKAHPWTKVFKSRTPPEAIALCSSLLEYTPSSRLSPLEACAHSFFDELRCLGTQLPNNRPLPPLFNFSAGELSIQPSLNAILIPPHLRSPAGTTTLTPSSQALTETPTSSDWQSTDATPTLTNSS

[26] = biological target: Tyrosine-protein kinase Fer (Homo sapiens) (UniProt P16591); details: Compound concentration 1000.0 nM
[27] = biological target: Cyclin-dependent kinase 17 (Homo sapiens) (UniProt Q00537); details: Compound concentration 1000.0 nM
[28] = biological target: Serine/threonine-protein kinase Nek7 (Homo sapiens) (UniProt Q8TDX7); details: Compound concentration 1000.0 nM
[29] = biological target: Activin receptor type-2A (Homo sapiens) (UniProt P27037); details: Compound concentration 1000.0 nM
Chain of Activin receptor type-2A (Homo sapiens) (P27037 whole entry): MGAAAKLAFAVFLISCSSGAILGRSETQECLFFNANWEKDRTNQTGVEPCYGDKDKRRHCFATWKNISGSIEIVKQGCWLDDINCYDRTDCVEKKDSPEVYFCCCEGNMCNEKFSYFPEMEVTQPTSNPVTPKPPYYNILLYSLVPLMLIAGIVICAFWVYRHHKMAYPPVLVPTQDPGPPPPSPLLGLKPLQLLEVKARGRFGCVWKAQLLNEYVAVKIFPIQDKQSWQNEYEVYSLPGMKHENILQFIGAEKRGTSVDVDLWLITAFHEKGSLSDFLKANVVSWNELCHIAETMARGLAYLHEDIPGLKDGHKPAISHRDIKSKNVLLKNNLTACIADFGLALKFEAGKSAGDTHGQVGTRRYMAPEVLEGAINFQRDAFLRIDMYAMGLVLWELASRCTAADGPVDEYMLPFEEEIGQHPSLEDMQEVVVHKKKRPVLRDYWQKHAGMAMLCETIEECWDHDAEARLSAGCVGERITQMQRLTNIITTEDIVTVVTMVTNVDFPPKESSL

[30] = biological target: Phosphatidylinositol 4-phosphate 5-kinase type-1 alpha (Homo sapiens) (UniProt Q99755); details: Compound concentration 1000.0 nM

SMILES | Ki ([1]; read-out: Ki) [nM] | residual activity [2] [%] | residual activity [3] [%] | residual activity [4] [%] | residual activity [5] [%] | Ki (Histamine H2 receptor; read-out: Ki) [nM] | Ki [6] [nM] | residual activity [7] [%] | residual activity [8] [%] | residual activity [9] [%] | residual activity [10] [%] | inhibition [11] [%] | inhibition (D(2) dopamine receptor) [%] | residual activity [12] [%] | residual activity [13] [%] | inhibition [14] [%] | residual activity [15] [%] | inhibition [16] [%] | residual activity [17] [%] | residual activity [18] [%] | also measured
CNCc1ccccc1-c1csc([C@@H](C)Nc2nc(C)nc3cc(OC)c(OC)cc23)c1 [BAY-293] | 265 | 97 | 76 | 100 | 74 | 140 | 623 | 99 | 63 | 76 | 100 | 43.1 | 32.3 | 71 | 91 | 85.8 | 95 | 91.7 | 49 | 92 | Ki (Histamine H2 receptor; read-out: pKi (converted)): 140 nM; residual activity [19]: 94%; residual activity [20]: 100%; residual activity [21]: 87%; residual activity [22]: 90%; residual activity [23]: 87%; residual activity [24]: 75%; residual activity [25]: 100%; residual activity [26]: 100%; residual activity [27]: 94%; residual activity [28]: 100%; residual activity [29]: 94%; residual activity [30]: 75%
CNCc1ccccc1-c1csc([C@H](C)Nc2nc(C)nc3cc(OC)c(OC)cc23)c1 [BAY-294] | 95.3 | 100 | 80 | 100 | 80 | 21.1 | 74.6 | 100 | 81 | 89 | 84 | 59.4 | 50.6 | 71 | 100 | 94.7 | 100 | 93.5 | 58 | 94 | Ki ([1]; read-out: pKi (converted)): 86.1 nM; residual activity [19]: 100%; residual activity [20]: 98%; residual activity [21]: 83%; residual activity [22]: 89%; residual activity [23]: 100%; residual activity [24]: 100%; residual activity [25]: 100%; residual activity [26]: 100%; residual activity [27]: 100%; residual activity [28]: 100%; residual activity [29]: 76%; residual activity [30]: 92%

Source: ChEMBL document CHEMBL4507273 (2021)
